Laboratory results: patent US10059721B2, “Substituted thieno[3,2-b]pyrazines for inhibiting cancer cell proliferation and inducing cancer cell apoptosis” (DONGGUK UNIVERSITY INDUSTRY-ACADEMIC COOPERATION FOUNDATION, priority 2014, dated 2018)

How the values were obtained:
Format in all cases: cell-based
HT29 = experiment: Cell growth inhibition experiment (SRB), HT29; conditions: Homo sapiens, HT-29, incubated for 96 hours, read-out: IC50 (μM) of cancer cell lines HT29
Procedure: (§1) The 4-(aryl)-N-(2-alkoxythieno[3,2-b]pyrazin-3-yl)-piperazin-1-carboxamide derivative compounds synthesized according to Examples 1 to 27 of the present invention were treated with various human tissue-derived cancer cell lines cultured according to Experimental Example 1, and thus the inhibitory effect of the growth of human cancer cells was confirmed. The cell growth inhibition experiment was conducted using sulforhodamine B (SRB) technique (Skehan et al., J. National Cancer Institute, 1990, 82: 1107-1112). Specifically, each cell line was seeded in a 96-well plate at a density of 2 to 3×10^3 cells/well, cultured overnight, and then treated with the 4-(aryl)-N-(2-alkoxythieno[3,2-b]pyrazin-3-yl)-piperazin-1-carboxamide derivative compounds of the present invention. The experiment was repeated 3 times for each compound. Cells treated with each compound were additionally incubated for 96 hours, fixed with 10% trichloroacetic acid (TCA), and then left at 4° C. for 1 hour. The resultant was washed 3 times with distilled water. Thereafter, each cell was treated with 0.4% sulforhodamine B dissolved in 1% acetic acid, stained for 30 minutes, and then washed 4 times with 1% acetic acid. The resultant was dried in the air. After shaking the resultant in Tris solution (10 mM) for 5 minutes, the absorbance was measured at 530 nm using a Benchmark Plus Microplate reader (Bio-Rad Laboratories, Hercules, Calif.).
(§2) In order to convert the OD530 value to the number of viable cells per each well, the measured OD530 value was compared to the standard OD530-vs.-cell number curve of each cell line. The percent survival was calculated using the following formula: % survival=Nlive cells(test)/Nlive cells(control)×100
(§3) IC50 values were calculated by nonlinear regression analysis.

[1] = tested on: UMRC2 (kidney cancer) cell line; experiment: Cell growth inhibition experiment (SRB), UMRC2; conditions: Homo sapiens, incubated for 96 hours, read-out: IC50 (μM) of cancer cell lines UMRC2
Procedure: (§4) The cell lines below were used in order to confirm the efficacy of the compounds synthesized in Examples 1 to 27. Human PANC-1 (pancreatic cancer) and MDA-MB-231 (breast cancer) cell lines were obtained from American Type Culture Collection (ATCC; Manassas, Va.); and HN31 (head and neck cancer) and UMRC2 (kidney cancer) cell lines were secured from the United States National Institutes of Health (Bethesda, Md.). The MDA-MB-231, UMRC2, HN31, and PANC-1 cell lines were cultured in Dulbecco modified Eagle medium (DMEM) containing FBS (10%), HEPES (10 mM), penicillin (100 U/mL), and streptomycin (100 μg/mL). All cell lines were cultured in an incubator (37° C., 5% CO2).
as §1, §2, §3

HUVEC = experiment: Cell growth inhibition experiment (SRB), HUVEC; conditions: Homo sapiens, incubated for 96 hours, read-out: IC50 (μM) of cancer cell lines HUVEC
Procedure: as §1, §2, §3

[2] = tested on: HN31 (head and neck cancer) cell line; experiment: Cell growth inhibition experiment (SRB), HN31; conditions: Homo sapiens, incubated for 96 hours, read-out: IC50 (μM) of cancer cell lines HN31
Procedure: as §4, §1, §2, §3

[3] = tested on: MDA-MB-231 (breast cancer) cell line; experiment: Cell growth inhibition experiment (SRB), MDA-MB-231; conditions: Homo sapiens, incubated for 96 hours, read-out: IC50 (μM) of cancer cell lines MDA-MB-231
Procedure: as §4, §1, §2, §3

SK-OV-3 = experiment: Cell growth inhibition experiment (SRB), SK-OV-3; conditions: Homo sapiens, incubated for 96 hours, read-out: IC50 (μM) of cancer cell lines SK-OV-3
Procedure: as §1, §2, §3

HEK293 = experiment: Cell growth inhibition experiment (SRB), HEK293; conditions: Homo sapiens, incubated for 96 hours, read-out: IC50 (μM) of cancer cell lines HEK293
Procedure: as §1, §2, §3

[4] = tested on: PANC-1 (pancreatic cancer) cell line; experiment: Cell growth inhibition experiment (SRB), PANC-1; conditions: Homo sapiens, incubated for 96 hours, read-out: IC50 (μM) of cancer cell lines PANC-1
Procedure: as §4, §1, §2, §3

A549 = experiment: Cell growth inhibition experiment (SRB), A549; conditions: Homo sapiens, incubated for 96 hours, read-out: IC50 (μM) of cancer cell lines A549
Procedure: as §1, §2, §3

Row | IC50 (HT29) [µM] | IC50 [1] [µM] | IC50 [2] [µM] | IC50 [3] [µM] | IC50 (SK-OV-3) [µM] | IC50 [4] [µM] | IC50 (A549) [µM] | SMILES | IC50 (HUVEC) [µM] | IC50 (HEK293) [µM]
1 | 0.28 | < 2.5 | 0.28 | 0.36 | 0.36 | 0.58 | 0.63 | COc1nc2ccsc2nc1NC(=O)N1CCN(c2cc(C)cc(F)c2)CC1 [Example 23, 4-(3-fluoro-5-methylphenyl)-N-(2-methoxythieno[3,2-b]pyrazin-3-yl)piperazin-1-carboxamide] | 0.45 | 0.35
2 | 0.36 | 0.36 | < 2.5 | 0.12 | 0.12 | 0.44 | 0.87 | COc1nc2ccsc2nc1NC(=O)N1CCN(c2cccc(OC(F)(F)F)c2)CC1 [Example 24, N-(2-methoxythieno[3,2-b]pyrazin-3-yl)-4-(3-(trifluoromethoxy)phenyl)piperazin-1-carboxamide] | < 2.5 | 0.25
3 | < 2.5 | < 2.5 | < 2.5 | < 2.5 | < 2.5 | < 2.5 | < 2.5 | COc1nc2ccsc2nc1NC(=O)N1CCN(c2cc(F)cc(OC(F)(F)F)c2)CC1 [Example 26, 4-(3-fluoro-5-(trifluoromethoxy)phenyl)-N-(2-methoxythieno[3,2-b]pyrazin-3-yl)piperazin-1-carboxamide] | < 2.5 | < 2.5
4 | < 2.5 | < 2.5 | < 2.5 | < 2.5 | < 2.5 | < 2.5 | < 2.5 | COc1nc2ccsc2nc1NC(=O)N1CCN(c2cc(F)cc(C(F)(F)F)c2)CC1 [Example 27, 4-(3-fluoro-5-(trifluoromethyl)phenyl)-N-(2-methoxythieno[3,2-b]pyrazin-3-yl)piperazin-1-carboxamide] | < 2.5 | < 2.5

The next lines start with the molecule.

Row | SMILES | IC50 (HT29) [µM] | IC50 [1] [µM] | IC50 [2] [µM] | IC50 [3] [µM] | IC50 (SK-OV-3) [µM] | IC50 [4] [µM] | IC50 (A549) [µM] | IC50 (HUVEC) [µM] | IC50 (HEK293) [µM]
5 | COc1nc2cc(Cl)sc2nc1NC(=O)N1CCN(c2cc(F)cc(F)c2)CC1 [Example 3, N-(6-chloro-2-methoxythieno[3,2-b]pyrazin-3-yl)-4-(3,5-difluorophenyl)piperazin-1-carboxamide] | 0.53 | 0.06 | 0.71 | 0.04 | 0.85 | 0.56 | 2.11 | 0.54 | 0.87
6 | Cc1cc(C)cc(N2CCN(C(=O)Nc3nc4sccc4nc3OC(C)C)CC2)c1 [Example 17, 4-(3,5-dimethylphenyl)-N-(2-isopropoxythieno[3,2-b]pyrazin-3-yl)piperazin-1-carboxamide] | < 2.5 | < 2.5 | < 2.5 | < 2.5 | < 2.5 | < 2.5 | < 2.5 | < 2.5 | < 2.5
7 | CCOc1nc2cc(Cl)sc2nc1NC(=O)N1CCN(c2cc(C)cc(C)c2)CC1 [Example 5, N-(6-chloro-2-ethoxythieno[3,2-b]pyrazin-3-yl)-4-(3,5-dimethylphenyl)piperazin-1-carboxamide] | < 2.5 | 1.72 | 2.35 | 1.22 | < 2.5 | 2.32 | < 2.5 | < 2.5 | < 2.5
8 | CCOc1nc2ccsc2nc1NC(=O)N1CCN(c2cc(OC)cc(OC)c2)CC1 [Example 13, 4-(3,5-dimethoxyphenyl)-N-(2-ethoxythieno[3,2-b]pyrazin-3-yl)piperazin-1-carboxamide] | < 2.5 | 0.26 | 0.72 | 0.16 | < 2.5 | 0.65 | < 2.5 | < 2.5 | < 2.5
9 | CCOc1nc2ccsc2nc1NC(=O)N1CCN(c2cc(F)cc(F)c2)CC1 [Example 15, 4-(3,5-difluorophenyl)-N-(2-ethoxythieno[3,2-b]pyrazin-3-yl)piperazin-1-carboxamide] | < 2.5 | 0.25 | 0.78 | 0.25 | < 2.5 | 1.12 | < 2.5 | < 2.5 | < 2.5
10 | CC(C)Oc1nc2cc(Cl)sc2nc1NC(=O)N1CCN(c2cc(F)cc(F)c2)CC1 [Example 9, N-(6-chloro-2-isopropoxythieno[3,2-b]pyrazin-3-yl)-4-(3,5-difluorophenyl)piperazin-1-carboxamide] | < 2.5 | < 2.5 | < 2.5 | < 2.5 | < 2.5 | < 2.5 | < 2.5 | < 2.5 | < 2.5
11 | CCOc1nc2cc(Cl)sc2nc1NC(=O)N1CCN(c2cc(OC)cc(OC)c2)CC1 [Example 4, N-(6-chloro-2-ethoxythieno[3,2-b]pyrazin-3-yl)-4-(3,5-dimethoxyphenyl)piperazin-1-carboxamide] | < 2.5 | 0.54 | 1.54 | 0.63 | < 2.5 | 1.28 | < 2.5 | 2.25 | < 2.5
